# Experimental data from US11253540B2, “Composition including glycosaminoglycan derivative and chemokine receptor activity regulator” (Seikagaku Corporation, priority 2015, dated 2022).
# What was measured:
# [1] = system: laser-induced CNV; assay: Laser-induced CNV models of rat: CNV area in flat mounts 10 days after intravitreal administration; format: in vivo; design: key to Test results, CNV area vs. DMSO, t-test: **: P < 0.01 (vs. DMSO), t-test; #: P < 0.05 (vs. Ki19003), t-test; N.S.: Not Significant (vs. DMSO), t-test; key to Test results, CNV area vs. DMSO, Dunnett's test: *: P < 0.05 (vs. DMSO), Dunnett's test; N.S.: Not Significant (vs. DMSO), Dunnett's test; #: P < 0.05; ##: P < 0.01 (vs. GW766994), Dunnett's test; key to Test results, CNV area vs. PBS, t-test: *: P < 0.05 (vs. PBS), t-test; N.S.: Not Significant (vs. PBS), t-test; CNV area, mean: unit not given here; conditions: for CNV area, mean: 5 μL/eye intravitreal once, 10 days
# Description: Laser-induced CNV models of rat were prepared, and neovascularization inhibitory effect was examined with respect to intravitreal administration of Composition 10 or Ki19003. BN/CrlCrlj rats (male, CHARLES RIVER LABORATORIES JAPAN, INC.) were used for the preparation of animal models. […] The retina around the optic disk was irradiated with a laser beam to induce CNV. Used for the laser beam irradiation were SCOPISOL solution for eye, Fundus 5.4 mm Laser Lens, a laser photocoagulation device and a slit lamp illumination system. Immediately after the laser beam irradiation, 5 μL/eye of the test substance was administered once into the vitreous bodies of both eyes. Immediately after the administration, one drop of an antimicrobial drug ([…] Ophthalmic Solution 0.5%) was instilled. After 10 days from the preparation, the models were euthanized with CO2. The eyeballs were extracted and immersed in 10% neutral buffered solution of formalin (room temperature, about 60 minutes). Eye cups were prepared, washed with PBS, dehydrated with methanol and immersed in PBS containing 1% bovine serum albumin and 0.5% Triton X-100 (room temperature, about 60 minutes). The retina was removed, and 60 μL of 0.5% fluorescein Griffonia simplicifolia lectin I, FITC-conjugate was added to the eye cups, and the eye cups were allowed to stand (under refrigeration, overnight). By this treatment, vascular endothelial cells of CNV were fluorescently stained with FITC-lectin. Eight slits were made radially in each of the eye cups to thereby obtain flat mounts. These flat mounts were washed twice with PBS containing 0.1% Triton X-100 and embedded on a glass slide with about 120 μL of Prolong Gold Antifade Reagent. A fluorescence image of CNV in the flat mount embedded on a glass slide was taken with a fluorescent microscope. The area of CNV was measured using an image processing software (Image pro exp). The areas of CNV in each group were analyzed by a test (t-test) for unpaired two groups. The significance level was 5% on both sides.
# [2] = system: laser-induced CNV; assay: Laser-induced CNV models of rat: CNV area, flat mounts prepared 4 days after preparation of models; format: in vivo; design: key to Test results, CNV area vs. CS, t-test: N.S.: Not Significant (vs. CS), t-test; conditions: Test Example 19; for CNV area, mean: 5 μL/eye intravitreal once, flat mounts after 4 days, Compound 3 10 mg/ml in PBS, CS (about 40,000) 10 mg/mL in PBS
# Description: BN/CrlCrlj rats (male, CHARLES RIVER LABORATORIES JAPAN, INC.) were used for the preparation of animal models. Under general anesthesia by intraperitoneal administration of an anesthetic mixture (saline:Somnopentyl=9:1) (about 2 mL/body), Mydrin-P ophthalmic solution was topically instilled to cause mydriasis in both eyes. The retina around the optic disk was irradiated with a laser beam to induce CNV. Used for the laser beam irradiation were SCOPISOL solution for eye, Fundus 5.4 mm Laser Lens, a laser photocoagulation device and a slit lamp illumination system. Immediately after the laser beam irradiation, 5 μL/eye of the test substance was administered once into the vitreous bodies of both eyes. Immediately after the administration, one drop of an antimicrobial drug (VEGAMOX Ophthalmic Solution 0.5%) was instilled.
# After 10 days from the preparation, the models were euthanized with CO2. The eyeballs were extracted and immersed in 10% neutral buffered solution of formalin (room temperature, about 60 minutes). Eye cups were prepared, washed with PBS, dehydrated with methanol and immersed in PBS containing 1% bovine serum albumin and 0.5% Triton X-100 (room temperature, about 60 minutes). The retina was removed, and 60 μL of 0.5% fluorescein Griffonia simplicifolia lectin I, FITC-conjugate was added to the eye cups, and the eye cups were allowed to stand (under refrigeration, overnight). By this treatment, vascular endothelial cells of CNV were fluorescently stained with FITC-lectin. Eight slits were made radially in each of the eye cups to thereby obtain flat mounts. These flat mounts were washed twice with PBS containing 0.1% Triton X-100 and embedded on a glass slide with about 120 μL of Prolong Gold Antifade Reagent.
# A fluorescence image of CNV in the flat mount embedded on a glass slide was taken with a fluorescent microscope. The area of CNV was measured using an image processing software (Image pro exp).
# Laser-induced CNV models of rat were prepared, and neovascularization inhibitory effect was examined with respect to intravitreal administration of Compound 3.
# Substantially the same procedure as in ? Method ? for Test Example 1 was repeated, except that flat mounts were prepared 4 days after the preparation of models, instead of 10 days after the preparation of models in Test Example 1.
# The areas of CNV in each group were analyzed by a test (t-test) for unpaired two groups. The significance level was 5% on both sides.
# [3] = system: laser-induced CNV; conditions: intravitreal administration, laser-induced CNV model of mouse; cited from earlier work
compound,measurement,setting,value
NC(=O)c1ccc(CNC(=O)NC[C@H]2CN(Cc3ccc(Cl)c(Cl)c3)CCO2)cc1 [GW766994],"inhibitory effects of CNV, as compared to DMSO","[1]; GW766994 dissolved in DMSO, 2 mg/mL and 1.5 mg/mL (Test Examples 6 and 10), both concentrations",did not have inhibitory effects of CNV
same,"Test results, CNV area vs. DMSO, t-test",[1]; Test Example 6,N.S.
same,"CNV area, mean","[1]; Test Example 6, Composition 33 containing 2 mg/mL of GW766994, GW766994 2 mg/mL in DMSO",41548
same,"Test results, CNV area vs. DMSO, Dunnett's test",[1]; Test Example 10,N.S.
same,"CNV area, mean","[1]; Test Example 10, Composition 6 containing 0.71, Composition 7 0.83 mg/mL of GW766994, GW766994 1.5 mg/mL in DMSO",30795
Cc1ccc(S(=O)(=O)NC(=O)N2CCC(N3CCC(Oc4ccc(Cl)c(Cl)c4)CC3)CC2)cc1 [AZD3778],"Test results, CNV area vs. DMSO, t-test",[1]; Test Example 8,N.S.
same,"CNV area, mean","[1]; Test Example 8, Composition 35 containing 0.1 mg/mL of AZD3778, AZD3778 0.1 mg/mL in DMSO",43935
chondroitin sulfate [CS],"Test results, CNV area vs. PBS, t-test",[1]; Test Example 18,N.S.
same,"CNV area, mean","[1]; Test Example 18, CS (average molecular weight about 140,000) 20 mg/mL in PBS",30462
same,"inhibitory effects of CNV, as compared to PBS","[1]; Test Example 18, CS 20 mg/mL",did not show significant inhibitory effects of CNV
same,"CNV area, mean",[2],50236
heparan sulfate,suppression of CNV,[3],suppressed CNV
5β-Cholanic Acid-Introduced CS [Compound 3],"Test results, CNV area vs. CS, t-test",[2],N.S.
same,"inhibitory effects of CNV, as compared to CS",[2],did not show significant inhibitory effects of CNV
same,"CNV area, mean",[2],51925
Cc1ccc2c(c1)C1(CCN(CCc3nc(-c4ccccc4)oc3C)CC1)OC(=O)N2 [RS504393],"Test results, CNV area vs. DMSO, t-test",[1]; Test Example 14,N.S.
same,"CNV area, mean","[1]; Test Example 14, Composition 37 containing 0.01 mg/mL of RS504393, RS504393 0.01 mg/mL in DMSO",44137
COC(=O)[C@H](Cc1ccc([N+](=O)[O-])cc1)NC(=O)c1cccc2ccccc12 [SB328437],"CNV area, mean","[1]; Test Example 4, Compositions 14, 15, 16 containing 1.33, 1.67, 3.33 mg/mL of SB328437, SB328437 2 mg/mL in DMSO",26040
same,"Test results, CNV area vs. DMSO, t-test",[1]; Test Example 9,* (P < 0.05)
same,"CNV area, mean","[1]; Test Example 9, Composition 36 containing 1 mg/mL of SB328437, SB328437 1 mg/mL in DMSO",38911
heparin,suppression of CNV,[3],suppressed CNV
NC(N)=NCCC[C@H](NC(=O)[C@@H]1Cc2ccccc2CN1C(=O)CCC(=O)c1ccccc1)C(=O)NCC1CCCCC1 [PS372424],"CNV area, mean","[1]; Test Example 15, Composition 38 containing 0.091 mg/mL of PS372424, PS372424 0.1 mg/mL in DMSO",36842
O=C(Nc1ccc([N+](=O)[O-])cc1O)Nc1ccccc1Br [SB225002],"Test results, CNV area vs. DMSO, t-test",[1]; Test Example 5,N.S.
same,"CNV area, mean","[1]; Test Example 5, Composition 31 containing 0.018, Composition 32 0.02 mg/mL of SB225002, SB225002 0.02 mg/mL in DMSO",43121
